Test [1] concerns the target T1, human MOR signaling through Gαi3 (Homo sapiens, UniProt P35372).
T1 construct: host or cells: HEK 293T, transient
The format is cell-based.

Test [2] addresses T2, human MOR signaling through Gαz with RGS20 (Homo sapiens, UniProt P35372).
T2 construct: host or cells: HEK 293T, transient
In words: nanoBRET assay, MOR signaling through Gαz with RGS20 (RGSz1) coexpression. The format is cell-based. The following applies: RGS20 coexpressed.

Test [3] addresses T3, human MOR signaling through GαoA (Homo sapiens, UniProt P35372).
T3 construct: host or cells: HEK 293T, transient
The format is cell-based.

Test [4] concerns the target T4, human MOR signaling through GαoB (Homo sapiens, UniProt P35372).
T4 construct: host or cells: HEK 293T, transient
The class given is cell-based.

The next test concerns the target human MOR (Homo sapiens, UniProt P35372). Briefly: [3H]naloxone competition binding, MOR-CHO cell membranes, low-affinity buffer. The following applies: fold change of Ki, vehicle vs 10 μM BMS-986122.
The target in test [5] is T5, human MOR signaling through Gαz (Homo sapiens, UniProt P35372).
T5 construct: host or cells: HEK 293T, transient
The format is cell-based.

The target in test [6] is T6, human MOR signaling through Gαi1 (Homo sapiens, UniProt P35372).
T6 construct: host or cells: HEK 293T, transient
The class given is cell-based.

Test [7] concerns the target T7, human MOR signaling through Gαi2 (Homo sapiens, UniProt P35372).
T7 construct: host or cells: HEK 293T, transient
The format is cell-based.

For test [8], the system named is human MOR signaling through different Gα subunits. Briefly: nanoBRET assay, comparison or average across Gα subunits. The format is cell-based. The following applies: for Average maximal increase in potency (EC50) caused by BMS-986122: average over Gα subunits, 10 μM BMS-986122.
Test [9] addresses human mu opioid receptor (MOR) (human) (UniProt P35372).
For test [10] the target is unchanged. In words: radioligand binding; competition with 1.0 nM [3H]naloxone on MOR-CHO cell membranes (50 ug membrane protein), vehicle; 60 min, 25 C; 50 mM Tris-HCl pH 7.4, 100 mM NaCl, 5 mM MgCl2, 1 mM EDTA, 1 mM DTT, 50 uM GDP (low-affinity buffer).
Test [11] has the same target. Briefly: radioligand binding; competition with 1.0 nM [3H]naloxone on MOR-CHO cell membranes (50 ug membrane protein), in the presence of 10 uM BMS-986122; 60 min, 25 C; 50 mM Tris-HCl pH 7.4, 100 mM NaCl, 5 mM MgCl2, 1 mM EDTA, 1 mM DTT, 50 uM GDP (low-affinity buffer).
Test [12] addresses T8, MOR signaling through GαoB-i3ct (Homo sapiens, UniProt P35372).
T8 construct: expressed in transfected cells; host or cells: HEK 293T (inferred: same nanoBRET system)
In words: nanoBRET assay, MOR signaling through GαoB-i3ct chimera (data not shown). The format is cell-based.

Test [13] has as its target T9, human MOR signaling through GαoA, GαoB and Gαi3 (Homo sapiens, UniProt P35372).
T9 construct: host or cells: HEK 293T, transient
In words: TruPATH BRET2 assay in HEK 293T cells compared with nanoBRET. The format is cell-based. The settings on record: GαoB and Gαi3, 10 μM BMS-986122, Student's t test.

The values below come from publication PMC12138978, “Mu Opioid Receptor Positive Allosteric Modulator BMS-986122 Confers Agonist-Dependent G Protein Subtype Signaling Bias” (Biochemistry, 2025).

“And” between values parts separate entries of the source, which are not always exact repeats. Equal values may be shown once. Marks after values point to notes of the source that are not given here.

T6 sequence (P35372 whole entry): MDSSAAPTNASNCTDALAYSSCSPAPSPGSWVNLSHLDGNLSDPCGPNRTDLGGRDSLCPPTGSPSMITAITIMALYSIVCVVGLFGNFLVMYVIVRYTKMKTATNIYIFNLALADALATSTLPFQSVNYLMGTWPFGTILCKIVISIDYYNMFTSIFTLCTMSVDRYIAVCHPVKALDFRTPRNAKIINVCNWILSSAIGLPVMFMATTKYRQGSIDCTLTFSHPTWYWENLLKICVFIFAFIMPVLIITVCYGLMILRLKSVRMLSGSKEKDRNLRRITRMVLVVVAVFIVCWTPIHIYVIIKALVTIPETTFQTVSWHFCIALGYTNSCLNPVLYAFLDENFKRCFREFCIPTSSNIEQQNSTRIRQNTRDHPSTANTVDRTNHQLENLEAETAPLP
T6 sequence (P63096 2-354 partner limits assumed): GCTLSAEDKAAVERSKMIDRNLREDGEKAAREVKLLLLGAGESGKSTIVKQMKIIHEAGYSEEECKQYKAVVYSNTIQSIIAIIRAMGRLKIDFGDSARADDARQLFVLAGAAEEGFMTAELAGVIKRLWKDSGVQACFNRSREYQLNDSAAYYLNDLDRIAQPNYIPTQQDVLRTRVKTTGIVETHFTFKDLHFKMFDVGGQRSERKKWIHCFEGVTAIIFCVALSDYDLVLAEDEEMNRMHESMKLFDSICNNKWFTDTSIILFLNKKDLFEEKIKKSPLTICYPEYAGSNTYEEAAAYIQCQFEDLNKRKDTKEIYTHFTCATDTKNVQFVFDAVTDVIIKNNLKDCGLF
T4 sequence (P35372 whole entry): as the sequence (P35372 whole entry) above
T4 sequence (P09471 2-354 isoform P09471-2 partner limits assumed): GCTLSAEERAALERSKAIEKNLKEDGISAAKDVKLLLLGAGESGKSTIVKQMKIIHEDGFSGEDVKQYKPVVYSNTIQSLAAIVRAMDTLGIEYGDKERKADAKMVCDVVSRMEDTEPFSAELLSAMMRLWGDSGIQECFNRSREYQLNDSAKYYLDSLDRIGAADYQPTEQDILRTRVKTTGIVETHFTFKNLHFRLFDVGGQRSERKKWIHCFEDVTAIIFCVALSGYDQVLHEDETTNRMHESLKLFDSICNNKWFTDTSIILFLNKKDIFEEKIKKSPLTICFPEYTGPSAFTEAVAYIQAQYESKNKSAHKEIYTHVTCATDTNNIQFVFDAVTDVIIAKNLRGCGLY
T5 sequence (P35372 whole entry): as the sequence (P35372 whole entry) above
T5 sequence (P19086 2-355 partner limits assumed): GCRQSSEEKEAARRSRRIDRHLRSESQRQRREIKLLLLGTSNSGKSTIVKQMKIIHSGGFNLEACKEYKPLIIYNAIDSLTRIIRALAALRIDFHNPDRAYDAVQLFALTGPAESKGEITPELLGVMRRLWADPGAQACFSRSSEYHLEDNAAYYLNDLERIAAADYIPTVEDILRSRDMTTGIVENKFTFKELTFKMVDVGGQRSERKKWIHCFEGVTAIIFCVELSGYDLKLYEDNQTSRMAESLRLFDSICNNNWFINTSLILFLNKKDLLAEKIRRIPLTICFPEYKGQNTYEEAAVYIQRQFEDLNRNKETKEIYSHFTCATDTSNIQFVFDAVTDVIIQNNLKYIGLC
T7 sequence (P35372 whole entry): as the sequence (P35372 whole entry) above
T7 sequence (P04899 2-355 partner limits assumed): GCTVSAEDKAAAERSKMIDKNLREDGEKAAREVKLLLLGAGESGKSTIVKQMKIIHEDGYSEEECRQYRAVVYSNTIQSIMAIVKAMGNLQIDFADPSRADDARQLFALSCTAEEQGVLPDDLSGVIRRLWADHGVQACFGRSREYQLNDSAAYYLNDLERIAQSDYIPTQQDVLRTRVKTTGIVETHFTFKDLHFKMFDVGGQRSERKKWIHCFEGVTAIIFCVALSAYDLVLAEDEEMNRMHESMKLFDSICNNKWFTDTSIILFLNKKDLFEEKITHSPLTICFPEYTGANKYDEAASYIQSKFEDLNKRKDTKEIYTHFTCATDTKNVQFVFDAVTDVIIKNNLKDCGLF
Chain of human mu opioid receptor (MOR) (human) (P35372 whole entry): as the sequence (P35372 whole entry) above
Chain of human MOR (P35372 whole entry): as above
T3 sequence (P35372 whole entry): as above
T3 sequence (P09471 2-354 partner limits assumed): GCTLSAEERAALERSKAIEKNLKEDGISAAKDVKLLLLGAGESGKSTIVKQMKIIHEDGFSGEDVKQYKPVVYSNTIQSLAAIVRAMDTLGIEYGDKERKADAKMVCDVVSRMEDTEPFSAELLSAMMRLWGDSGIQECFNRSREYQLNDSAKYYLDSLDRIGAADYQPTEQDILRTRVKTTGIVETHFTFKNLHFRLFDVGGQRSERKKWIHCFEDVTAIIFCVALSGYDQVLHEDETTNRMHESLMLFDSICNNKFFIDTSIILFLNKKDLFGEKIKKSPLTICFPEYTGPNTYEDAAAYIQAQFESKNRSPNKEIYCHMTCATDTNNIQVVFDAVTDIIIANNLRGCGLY
T1 sequence (P35372 whole entry): as the sequence (P35372 whole entry) above
T1 sequence (P08754 2-354 partner limits assumed): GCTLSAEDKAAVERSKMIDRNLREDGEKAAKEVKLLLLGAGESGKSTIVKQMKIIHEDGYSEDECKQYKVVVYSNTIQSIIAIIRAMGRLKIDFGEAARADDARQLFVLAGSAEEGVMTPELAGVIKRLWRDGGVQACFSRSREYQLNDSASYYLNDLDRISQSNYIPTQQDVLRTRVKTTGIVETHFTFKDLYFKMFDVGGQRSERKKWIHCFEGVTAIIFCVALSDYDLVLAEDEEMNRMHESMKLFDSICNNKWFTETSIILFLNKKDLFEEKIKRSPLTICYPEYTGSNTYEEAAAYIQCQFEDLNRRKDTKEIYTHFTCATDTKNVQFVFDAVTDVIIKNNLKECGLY
T8 sequence (P35372 whole entry): as the sequence (P35372 whole entry) above
T9 sequence (P35372 whole entry): as above
T2 sequence (P35372 whole entry): as above
T2 sequence (P19086 2-355 partner limits assumed): as the sequence (P19086 2-355 partner limits assumed) above

Consider `CC(C)=CCN1CCC2(C)c3cc(O)ccc3CC1C2C` (single isomer, unassigned; (-)) [(−)-Pentazocine], for which the Emax in test [1] was 70 ± 1.8% and 102 ± 1.8%; in test [3] it was 48 ± 2.2% and 88 ± 3.0%; in test [4], 74 ± 0.33% and 96 ± 2.6%; in test [5] it was 105 ± 1.8% and 110 ± 6.7%; in [6], 56 ± 1.4% and 105 ± 1.2%; in [7], 35 ± 2.0% and 66 ± 4.3%. In test [2], the “Emax with RGS20 coexpression versus without” value is listed as “dramatically reduced”. The “Ki (Veh)/Ki (BMS)” value on human MOR was 1.0 ns.

Consider `Cc1ccccc1COc1ccc(C2C3=C(CC(C)(C)CC3=O)OC3=C2C(=O)CC(C)(C)C3)cc1` [BMS-986187], for which, in test [8] (7-hydroxymitragnine as agonist, 10 μM PAM, relative transduction coefficients compared between Gαi3 and GαoB), the “ΔΔlog(τ)oB-i3” value amounted to 0.157.

`C[C@@H](NC(=O)[C@@H](N)Cc1ccc(O)cc1)C(=O)NCC(=O)N(C)[C@@H](Cc1ccccc1)C(=O)NCCO` [DAMGO, [D-Ala 2, N-MePhe 4, Gly-ol]-enkephalin]: the ΔpEC50 in [1] was 0.467 ± 0.104; in [3] it was 0.667 ± 0.022; in [4], 0.791 ± 0.109; in test [5] it was 0.529 ± 0.087; in test [6], 0.596 ± 0.023; in [7] it was 0.712 ± 0.064. Moreover, the “Ki (Veh)/Ki (BMS)” value at human MOR is recorded as 6.8 ****. Besides, the “Average maximal increase in potency (EC50) caused by BMS-986122” value in [8] is 4.5 fold.

Take `CSCC[C@H](NC(=O)[C@H](Cc1ccccc1)NC(=O)CNC(=O)CNC(=O)[C@@H](N)Cc1ccc(O)cc1)C(=O)O` [Met-Enkephalin, methionine-enkephalin]: the “Average maximal increase in potency (EC50) caused by BMS-986122” value in test [8] is listed as 3.8 fold.

In [9], “[D-Ala 2, N-MePhe 4, Gly-ol]-enkephalin (DAMGO) acetate (peptide)” showed an EC50, nanoBRET G protein activation in HEK 293T cells, MOR signaling through Gαi1, vehicle of 58 nM; an EC50, nanoBRET G protein activation in HEK 293T cells, MOR signaling through Gαi2, vehicle of 46 nM; an EC50, nanoBRET G protein activation in HEK 293T cells, MOR signaling through Gαi2, with 10 μM BMS-986122 of 9.1 nM; an EC50, nanoBRET G protein activation in HEK 293T cells, MOR signaling through Gαi3, vehicle of 24 nM. For the same compound, in test [9], the EC50, nanoBRET G protein activation in HEK 293T cells, MOR signaling through Gαi3, with 10 μM BMS-986122 was found to be 7.3 nM; the EC50, nanoBRET G protein activation in HEK 293T cells, MOR signaling through GαoA, with 10 μM BMS-986122 amounted to 10 nM; the EC50, nanoBRET G protein activation in HEK 293T cells, MOR signaling through GαoB, vehicle is 74 nM; the EC50, nanoBRET G protein activation in HEK 293T cells, MOR signaling through GαoB, with 10 μM BMS-986122 came to 11 nM. For the same compound, in [9], the EC50, nanoBRET G protein activation in HEK 293T cells, MOR signaling through Gαz, vehicle was 10 nM and the EC50, nanoBRET G protein activation in HEK 293T cells, MOR signaling through Gαz, with 10 μM BMS-986122 was found to be 3.2 nM. The same compound gave a Ki in test [10] of 240 nM. For the same compound, the Ki in test [11] amounted to 35 nM.

As to `CC[C@@H]1CN2CC[C@@]3(O)C(=Nc4cccc(OC)c43)[C@@H]2C[C@@H]1/C(=C\OC)C(=O)OC` [7-Hydroxymitragynine], the “Ki (Veh)/Ki (BMS)” value at human MOR is 1.1 ns. Also, in test [5], the Emax was 33 ± 3.0% and 65 ± 4.1%. Further, in [12], the “Efficacy modulation by BMS-986122” value was “reduced” and the Intrinsic efficacy entry was “increased substantially”. Also, the “Δlog(τ) in TruPATH compared with nanoBRET” value in test [13] is listed as “not statistically different”.

In test [9], “methionine-enkephalin (met-enkephalin) acetate (peptide)” gave an EC50, nanoBRET G protein activation in HEK 293T cells, MOR signaling through Gαi1, vehicle of 52 nM; an EC50, nanoBRET G protein activation in HEK 293T cells, MOR signaling through Gαi1, with 10 μM BMS-986122 of 10 nM; an EC50, nanoBRET G protein activation in HEK 293T cells, MOR signaling through Gαi3, with 10 μM BMS-986122 of 8.7 nM; an EC50, nanoBRET G protein activation in HEK 293T cells, MOR signaling through GαoA, vehicle of 53 nM. Moreover, in test [9], the EC50, nanoBRET G protein activation in HEK 293T cells, MOR signaling through GαoB, vehicle worked out at 53 nM; the EC50, nanoBRET G protein activation in HEK 293T cells, MOR signaling through GαoB, with 10 μM BMS-986122 amounted to 14 nM; the EC50, nanoBRET G protein activation in HEK 293T cells, MOR signaling through Gαz, with 10 μM BMS-986122 was found to be 17 nM. The Ki in test [11] is 48 nM.

In the case of `COc1cc(Br)ccc1C1SCCN1S(=O)(=O)c1ccc(Cl)cc1` (stereo not drawn) [BMS-986124], in test [7], the “Antagonism of the effect of 3 μM BMS-986122 on the potency of DAMGO” value is reported as “antagonized the effect of 3 μM BMS-986122, but not completely” and the “Antagonism of the effect of 3 μM BMS-986187 on the potency of DAMGO” value is reported as “partially block the effect of 3 μM BMS-986187”.
